Measured values: patent publication US7811604B1, “Non-effervescent, orally disintegrating solid pharmaceutical dosage forms comprising clozapine and methods of making and using the same” (Barr Laboratories, Inc., priority 2005, dated 2010)
Where a SMILES comes first, the peptide text is derived from it.

Experiments:
[1] = Compaction index of excipients; type: physicochemical; conditions: force to fracture a solid mass prepared by compaction of 500 mg of powder under 1000 lbs pressure, 16/32″ die, flat face punches
Excerpt: In some embodiments, the concentration of the non-polymeric water-soluble carrier, disintegrant, and water-insoluble polymer can be selected to optimize the physical integrity of the dosage forms of the present invention (i.e., to minimize the friability of the dosage forms of the present invention). Not being bound by any particular theory, the durability, robustness, and/or friability of the compressed dosage forms of the present invention can be estimated using the compaction index of the excipients used to prepare the dosage forms. As used herein, “compaction index” refers to the force in kiloponds (kp) required to fracture a solid mass prepared by compaction of 500 mg of powder under 1000 lbs pressure using a 16/32″ die and flat face punches. To obtain dosage forms having both low friability and low hardness, a mixture used to prepare the dosage forms can have a compaction index of at least about 5 kp/500 mg/1000 lbs. Not being bound by any particular theory, the compaction index can be used as an indicator of particle interactions in a compressed solid dosage form. For example, the compression of a dry mixture usually has a significant effect on the inter-particle interactions within the mixture, and can involve combinations of • (i) closer contact between particles and the exclusion of air; • (ii) alignment and interlocking of particles; • (iii) the development of stresses and shearing forces that result in fracture and the generation of smaller particles; • (iv) elastic and plastic deformations of particles that can change particle shape; and • (v) chemical bonding between adjacent particles, especially during long-term storage.
Depending on the properties of the excipients comprising the mixture, powdered mixtures can undergo elastic, plastic, or visco-elastic deformation, or brittle fracture, when placed under compressive force. After compression, a compressed dosage form tends to undergo elastic recovery, visco-elastic recovery or brittle fracture. […]

[2] = Particle size and particle size distribution of ingredients; type: physicochemical; conditions: for D50: median particle size of ingredient used for Dosage Form A; for D10 / D90: particle size distribution of ingredient used for Dosage Form A; for VMD: volume mean diameter D[4,3] of ingredient used for Dosage Form A
Excerpt: As used herein, the term “particle size” refers to particle diameter. Particle size and particle size distribution can be measured using, for example, a Hyac/Royco particle size analyzer, a Malvern particle size analyzer, a Beckman Coulter laser diffraction particle size analyzer, or a Shimadzu laser diffraction particle size analyzer. As used herein, the term “diameter” relates to a volumetric measurement based on an approximate spherical shape of a particle. In addition to encompassing free base clozapine particles of a given size, the present invention is also directed to formulations and solid oral dosage forms wherein the distribution of particle sizes of free base clozapine and the excipients are controlled. As used herein, a “distribution” refers to the number or concentration (i.e., percentage) of particles having a certain size, or range of sizes, within a given lot, batch, or solid oral dosage form of the present invention.
As used herein, “volume mean diameter,” when used in reference to the size of particles for use with the present invention, refers to the value of the volume moment mean as represented by D[4,3]. This value indicates the central point of frequency around which the distribution of surface area or volume rotates.
As used herein, the “median” particle size is synonymous with the “particle size D50,” in microns. For example, for the five particle values listed above, the median diameter, or particle size D50, would be 20 μm.
As used herein, “particle size D90,” refers a mixture wherein about 90% of all measurable particles have a diameter equal to or less than the value D90, in microns, and 10% of the measurable particles have a diameter greater than the value of D90, in microns.
The particle size and particle size distribution of the various excipient used in the particulate mixture of the present invention are listed in Table 2.

Row | Compound | Compaction index [1] [kp/500 mg/1000 lbs] | D50 [2] [μm] | D10 [2] [μm] | D90 [2] [μm] | VMD [2] [μm]
1 | COC(=O)[C@H](Cc1ccccc1)NC(=O)[C@@H](N)CC(=O)O [Aspartame] (H-Asp-Phe-OMe) | 10 |  |  |  | 
2 | CN1CCN(C2=Nc3cc(Cl)ccc3Nc3ccccc32)CC1 [Free base clozapine, 8-chloro-11-(4-methyl-1-piperazinyl)-5H-dibenzo[b,e][1,4]diazepine, reference compound] |  | 19 | 5 | 51 | 25
3 | OC[C@@H](O)[C@@H](O)[C@H](O)[C@H](O)CO [Mannitol] | 9 | 221 | 81 | 507 | 263
4 | OC[C@@H](O)[C@H](O)[C@@H](O)CO [Xylitol] | 0.7 | 167 | 86 | 310 | 184
